Data taken from US20200291100A1, “TREATMENT OF AGE-RELATED AND MITOCHONDRIAL DISEASES BY INHIBITION OF HIF-1 ALPHA FUNCTION” (President and Fellows of Harvard College, priority 2012, published 2020).

Tests used:
[1] = tested on: PGC-1α/β knockout myotubes; assay: HIF stabilizing compounds in PGC-1α/β knockout myotubes with or without SIRT1 overexpression; assay type: cell-based, mouse
Description: Next whether the ability of SIRT1 to regulate mitochondrial function independently of PGC-1α/β is mediated by HIF-1α was tested. […] Furthermore, cells expressing a mutant allele of HIF-1α that is constitutively stabilized due to the replacement of the two hydroxylated prolines with alanines (DPA) (FIG. 7A), caused genome asynchrony similar to hypoxia and treatment with DMOG (FIG. 7B).
Primary myoblasts cells were isolated from WT, SIRT1 KO (Price et al., 2012) and PGC-1α/β KO (Zechner et al., 2010) mice as previously described (Price et al., 2012). WT and PGC-1α/β KO primary myoblasts were plated and allowed to differentiate into myotubes by replacing the media with low glucose DMEM supplemented with 2% horse serum (Sigma-Aldrich) for 4 days. After the differentiation the cells were infected with empty vector or flag-SIRT1 adenovirus as described before (Gerhart-Hines et al., 2007). Media was replaced with fresh DMEM supplemented with 2% horse serum (Sigma-Aldrich) for an additional 48 hr and, after that the cells were harvested for the different assays as described. To investigate the role of HIF-1α in genome asynchrony, PGC-1α/β KO primary myotubes were treated for 12 hours with 1 mM DMOG (Sigma) or 10 μM DFO (Sigma), 24 h after infection with empty vector of flag-SIRT1 adenovirus or after 12 h treatment with […] NMN (Sigma).
RNA from skeletal muscle tissue and C2C12 cells were extracted with RNeasy mini kit (Qiagen) according to the instructions and quantified using the NanoDrop 1000 spectrophotometer (Thermo Scientific). cDNA was synthesized with the iSCRIP cDNA synthesis kit (BioRad) using 600 ng of RNA. Quantitative RT-PCR reactions were performed using 1 μM of primers and LightCycler® 480 SYBR Green Master (Roche) on an LightCycler® 480 detection system (Roche). Calculations were performed by a comparative method (2-ΔCT) using 18S as an internal control. For mtDNA analysis, total DNA was extracted with DNeasy blood and tissue kit (Qiagen). mtDNA was amplified using primers specific for the mitochondrial cytochrome c oxidase subunit 2 (COX2) gene and normalized to genomic DNA by amplification of the ribosomal protein s18 (rps18) nuclear gene. […]
(§1) Protein extracts from tissue or C2C12 cells were obtained by lysis in ice-cold lysis buffer (150 mM NaCl, 10 mM Tris HCl (pH 7.4), 1 mM EDTA, 1 mM EGTA, 1% Triton X-100, 0.5% NP-40) supplemented with a cocktail of protease and phosphatase inhibitors (Roche). Protein content was determined by the Bradford protein assay (Biorad), and 50 μg proteins were run on SDS-PAGE under reducing conditions. […] The immunostaining was detected using horseradish peroxidase-conjugated anti-rabbit or anti-mouse immunoglobulin for 1 h at room temperature.

SIRT1-tg mice = assay: DMOG treatment of SIRT1-tg mice, gastrocnemius readouts; assay type: in vivo, mouse; settings: DMOG 300 mg/kg IP per day, 5 days
Description: Whole body SIRT1 overexpressor (SIRT1-tg) mice of 6 months of age were given interperitoneal (IP) injections of 300 mg DMOG/kg body weight per day or the equivalent volume of PBS for 5 consecutive days.
(§2) ATP content was measured with a commercial kit according to the manufacturer's instructions (Roche).
RNA from skeletal muscle tissue and C2C12 cells were extracted with RNeasy mini kit (Qiagen) according to the instructions and quantified using the NanoDrop 1000 spectrophotometer (Thermo Scientific). cDNA was synthesized with the iSCRIP cDNA synthesis kit (BioRad) using 600 ng of RNA. Quantitative RT-PCR reactions were performed using 1 μM of primers and LightCycler® 480 SYBR Green Master (Roche) on an LightCycler® 480 detection system (Roche). Calculations were performed by a comparative method (2-ΔCT) using 18S as an internal control. For mtDNA analysis, total DNA was extracted with DNeasy blood and tissue kit (Qiagen). mtDNA was amplified using primers specific for the mitochondrial cytochrome c oxidase subunit 2 (COX2) gene and normalized to genomic DNA by amplification of the ribosomal protein s18 (rps18) nuclear gene. Primers were designed using the IDT software (IDT) and the primer sequences can be found in Table 1.
as §1, with “conditions. The separated proteins were then electrophoretically transferred to a polyvinylidene difluoride membrane (Perkin-Elmer).” for “conditions.”

Egln1 KO mice = assay: NMN treatment of Egln1 KO mice; assay type: in vivo, mouse; settings: skeletal muscle of Egln1 KO mice compared to WT controls; NMN 500 mg/kg IP, 7 days
Description: Whole body adult-inducible Egln1 knockout mice (Minamishima et al, 2007) were treated with IP injection of tamoxifen for 3 days after which they were allowed to rest. The mice were given interperitoneal (IP) injections of 500 mg NMN/kg body weight per day or the equivalent volume of PBS for 7 consecutive days at 5:00 pm and 7:00 am on day 8 and sacrificed 4 hr after last injection. All animal studies followed the guidelines of and were approved by the Harvard Institutional Animal Care and Use Committee.
as §2
RNA from skeletal muscle tissue and C2C12 cells were extracted with RNeasy mini kit (Qiagen) according to the instructions and quantified using the NanoDrop 1000 spectrophotometer (Thermo Scientific). cDNA was synthesized with the iSCRIP cDNA synthesis kit (BioRad) using 600 ng of RNA. Quantitative RT-PCR reactions were performed using 1 μM of primers and LightCycler® 480 SYBR Green Master (Roche) on an LightCycler® 480 detection system (Roche). Calculations were performed by a comparative method (2-ΔCT) using 18S as an internal control. […]

[2] = tested on: 3- and 24-month-old C57BL/6J mice; assay: NMN treatment of 3- and 24-month-old mice, skeletal muscle readouts; assay type: in vivo, mouse; settings: NMN 500 mg/kg IP, one week
Description: C57BL/6J mice of 3, 6, 22, 24, or 30 months of age were obtained from the National Institutes of Aging mouse aging colony. Mice were acclimated for at least one-week prior to sacrifice. 3, and 24-month-old mice were given interperitoneal (IP) injections of 500 mg NMN/kg body weight per day or the equivalent volume of PBS for 7 consecutive days at 5:00 pm and 7:00 am on day 8 and sacrificed 4 hr after last injection. All animal studies followed the guidelines of and were approved by the Harvard Institutional Animal Care and Use Committee
Skeletal muscle mitochondria were isolated as described previously (Frezza et al., Nat. Protoc. 2:287-295 (2007)). Mitochondrial membrane potential, cytochrome c activity and succinate dehydrogenase were determined as described (Brautigan et al., Methods Enzymol. 53:128-164 (1978); Rolo et al., Biochim. Biophys. Acta. 1637:127-132 ([…]); Singer, T. P., Methods Biochem. Anal. 22:123-175 (1974)). ATP content was measured with a commercial kit according to the manufacturer's instructions (Roche).
NAD^+ from C2C12 cells and skeletal muscle was quantified with a commercially available kit (BioVision) according to the manufacturer's instructions and as described before (Gomes et al., Biochim. Biophys. Acta. 1822:185-195 (2012)).
To test whether a decline in NAD^+ availability, invokes a pseudohypoxic response in muscle that inhibits mitochondrial function, we treated 3- and 24-month-old C57BL/6J mice for one week by intraperitoneal injection of nicotinamide mononucleotide (NMN) (500 mg/kg body weight), a compound that increases NAD^+ levels in a variety of tissues. After the treatment, levels of cellular NAD^+ in both the young and old mice were approximately 2-fold higher, such that the treated 24-month-old mice resembled the untreated 3-month-olds (FIG. 10A).

[3] = skeletal muscle, treated old (24-month) mice

Structure (SMILES)	expression of mitochondrial-encoded genes ([1]; DMOG compared to vehicle control, no SIRT1 overexpression)	HIF-1α protein (immunoblot) ([1]; DMOG versus DMSO (FIG. 21C))	effect on induction of mitochondrial ETC genes by SIRT1 overexpression ([1]; SIRT1 adenovirus, 1 mM DMOG or 10 μM DFO, 12 hours)	HIF-1α protein (immunoblot) (SIRT1-tg mice)	effect on the increase in ATP levels observed in SIRT1-tg mice (SIRT1-tg mice)	effect on the increase in expression of mitochondrial-encoded genes observed in SIRT1-tg mice (SIRT1-tg mice)	ATP levels (Egln1 KO mice)	mitochondrial-encoded genes (Egln1 KO mice)	expression of HIF-1α target genes (PGK-1, Glut1, PKD1, VEGFa) ([2]; gastrocnemius, qPCR, 24-month-old mice)	HIF-1α in muscle (immunoblot) ([2]; gastrocnemius, 24-month-old mice)	levels of cellular NAD+ ([2]; gastrocnemius, young and old mice, versus untreated)	mitochondrial membrane potential ([2]; isolated skeletal muscle mitochondria, treated old (24-month) mice)	ATP levels [2, 3]	COX activity [2, 3]
COC(=O)CNC(=O)C(=O)OC [DMOG, dimethyloxaloylglycine]	induced a decline	stabilizes HIF-1α protein	completely blocked	increase HIF-1α	abolished the increase	abolished the increase	–	–	–	–	–	–	–	–
NC(=O)c1ccc[n+]([C@@H]2O[C@H](COP(=O)([O-])O)[C@@H](O)[C@H]2O)c1 [NMN, nicotinamide mononucleotide]	–	–	–	–	–	–	did not restore	did not restore	suppressed the expression	reversed the age-induced increase	approximately 2 fold	restoration of mitochondrial membrane potential to the levels of the young mice	increases	increases
